Experimental data published in ChEMBL document CHEMBL3608233, “Potent benzoazepinone γ-secretase modulators with improved bioavailability” (Bioorg Med Chem Lett, 2015).
In brackets after ≈: the same amount, converted by molar mass. Values belong to the molecule of their own block, whether it stands above or below them.

What was measured:
in vivo [1] = conditions: APP YAC Tg, mouse, brain, 50 mg/kg
in vivo [2] = conditions: APP YAC Tg, mouse, plasma, 50 mg/kg
in vitro [3] = conditions: human, hepatocytes
[4] = Drug metabolism in dog hepatocytes assessed as formation of methyl ester cleavage product; assay type: ADME, cell-based, Canis lupus familiaris, Hepatocyte
[5] = Drug metabolism in dog hepatocytes assessed as oxidation of benzoazepinone; assay type: ADME, cell-based, Canis lupus familiaris, Hepatocyte
in vivo [6] = conditions: Sprague-Dawley, rat, po, 2 mg/kg
in vivo [7] = conditions: Sprague-Dawley, rat
in vitro [8] = conditions: rat, hepatocytes
in vivo [9] = conditions: Sprague-Dawley, rat, iv, 1 mg/kg
in vitro [10] = conditions: dog, hepatocytes
[11] = Plasma concentration in APP YAC Tg mouse model at 30 mg/kg after 6 hrs; assay type: ADME, organism-based
in vivo [12] = conditions: Sprague-Dawley, rat, iv, 1 mg/kg; remark: listed apart in the source
in vivo [13] = conditions: beagle, dog, iv
[14] = Ratio of drug level in brain to plasma in APP YAC Tg mouse model at 30 mg/kg after 6 hrs; assay type: ADME, organism-based; conditions: brain and plasma, read-out: BPR
[15] = Drug metabolism in dog urine assessed as formation of methyl ester cleavage product; assay type: ADME, tissue-based, Canis lupus familiaris
[16] = Drug metabolism in dog urine assessed as oxidation of benzoazepinone; assay type: ADME, tissue-based, Canis lupus familiaris
in vivo [17] = conditions: beagle, dog, iv; remark: listed apart in the source
physchem [18] = conditions: buffer, pH 7
Canis familiaris = species: Canis familiaris; conditions: dog, in vivo, po, 0.5 mg/kg
[19] = Drug metabolism in dog urine assessed as oxidation of methylimidazole; assay type: ADME, tissue-based, Canis lupus familiaris
in vitro [20] = conditions: pig, LLC-PK1
physchem [21] = conditions: buffer, pH 2
in vivo [22] = conditions: beagle, dog
[23] = Drug uptake in brain of APP YAC Tg mouse model at 30 mg/kg after 6 hrs; assay type: ADME, organism-based; conditions: read-out: Drug uptake
in vivo [24] = conditions: APP YAC Tg, mouse, brain, 100 mg/kg
in vivo [25] = conditions: APP YAC Tg, mouse, plasma, 100 mg/kg

SMILES: Cc1cn(-c2ccc(-c3cn([C@H]4CCc5c(F)cccc5N(CC(F)(F)F)C4=O)nn3)cc2F)cn1
concentration at 6 h (in vivo [1]): 6.8 µM
concentration at 6 h (in vivo [2]): 15 µM

CLint scaled (in vitro [3]): 94 mL/min/kg
Drug metabolism [4]: metabolite_notdetected
Drug metabolism [5]: metabolite_detected
bioavailability (in vivo [6]): 100%
half-life (in vivo [7]): 48 min
CLint scaled (in vitro [8]): 210 mL/min/kg
clearance (in vivo [9]): 38 mL/min/kg
CLint scaled (in vitro [10]): 400 mL/min/kg
concentration at 6 h [11]: 5.1 µM
Vd (in vivo [12]): 4.8 L/kg
clearance (in vivo [13]): 98 mL/min/kg
Kp at 6 h [14]: 0.3
Drug metabolism [15]: metabolite_notdetected
Drug metabolism [16]: metabolite_detected
Vd (in vivo [17]): 5.6 L/kg
solubility (physchem [18]): 4.2 µM (≈ 2.16 µg/mL)
F (Canis familiaris): BLD
Drug metabolism [19]: metabolite_detected
Papp (in vitro [20]): 21 ×10⁻⁶ cm/s
solubility (physchem [21]): 170 µM (≈ 87.5 µg/mL)
half-life (in vivo [22]): 42 min
concentration at 6 h [23]: 1.6 µM
SMILES: COc1cc(-c2cn([C@H]3CCc4c(F)cccc4N(CC(F)(F)F)C3=O)nn2)ccc1-n1cnc(C)c1

SMILES: COc1cc(-c2cn([C@H]3CCc4c(F)cccc4N(CC(F)(F)F)C3=O)nn2)ccc1-n1cnc(C(F)(F)F)c1
concentration at 6 h (in vivo [24]): 0.87 µM
concentration at 6 h (in vivo [25]): 4.5 µM
